# Data: ChEMBL document CHEMBL4808202, “Evaluation of artemisinin derivative artemether as a fluconazole potentiator through inhibition of Pdr5” (2021)
# Active and inactive are the calls of the source. The rule behind the calls is not given here.
# Experiments:
# Candida albicans [1] = assay: Potentiation of fluconazole-induced antifungal activity against Candida albicans SC5314 assessed as inhibition of fungal filamentation by measuring reduction in fungal hyphae growth in Spider medium at 100 uM incubated for 1 hr in presence of fluconazole by microscopic analysis; format: functional, organism-based
# Candida albicans [2] = assay: Potentiation of micafungin-induced antifungal activity against Candida albicans SC5314 assessed as fungal growth at 100 microM measured after 24 hrs in presence of micafungin by absorbance based analysis relative to micafungin-treated control; format: functional
# Candida albicans [3] = assay: Antifungal activity against Candida albicans SC5314 assessed as inhibition of fungal filamentation in YEPD containing 10% serum medium at 100 uM incubated for 1 hr by microscopic analysis; format: functional, organism-based
# Candida albicans [4] = assay: Antifungal activity against Candida albicans SC5314 assessed as inhibition of fungal filamentation in Spider medium at 100 uM incubated for 1 hr by microscopic analysis; format: functional, organism-based
# Candida albicans [5] = assay: Antifungal activity against Candida albicans SC5314 assessed as inhibition of fungal growth by measuring decrease in OD600 at 100 microM measured after 24 hrs by absorbance based analysis; format: functional
# Candida albicans [6] = assay: Potentiation of fluconazole-induced antifungal activity against Candida albicans SC5314 assessed as fungal growth at 100 microM measured after 24 hrs in presence of fluconazole by absorbance based analysis relative to fluconazole-treated control; format: functional
# Candida albicans [7] = assay: Potentiation of fluconazole-induced antifungal activity against Candida albicans SC5314 assessed as inhibition of fungal filamentation by measuring reduction in fungal hyphae growth in YEPD containing 10% serum medium at 100 uM incubated for 1 hr in presence of fluconazole by microscopic analysis; format: functional, organism-based
# Candida albicans [8] = assay: Potentiation of amphotericin B-induced antifungal activity against Candida albicans SC5314 assessed as fungal growth at 100 microM measured after 24 hrs in presence of amphotericin B by absorbance based analysis relative to amphotericin B-treated control; format: functional
# Saccharomyces cerevisiae [9] = assay: Antifungal activity against Saccharomyces cerevisiae harboring pdr5 delta mutant assessed as fungal growth at 1600 uM measured after 24 hrs by absorbance based analysis relative to control; format: functional
# Saccharomyces cerevisiae [10] = assay: Antifungal activity against Saccharomyces cerevisiae harboring bpt1 delta mutant assessed as fungal growth at 1600 uM measured after 24 hrs by absorbance based analysis relative to control; format: functional
# Saccharomyces cerevisiae [11] = assay: Antifungal activity against Saccharomyces cerevisiae BY4742 assessed as fungal growth at 1600 uM measured after 24 hrs by absorbance based analysis relative to control; format: functional
# Saccharomyces cerevisiae [12] = assay: Inhibition of PDR5 in Saccharomyces cerevisiae BY4742 assessed as inhibition of R6G efflux at 400 uM incubated for 4 hrs followed by R6G addition and measured after 1.5 hrs by fluorescence based analysis; conditions: time 5.5 hrs
# [Candida] auris [13] = Potentiation of fluconazole-induced antifungal activity against Candida auris NL002 assessed as fungal growth at 100 uM measured after 24 hrs in presence of fluconazole by absorbance based analysis relative to vehicle-treated control; format: functional, Candidozyma auris
# Saccharomyces cerevisiae [14] = assay: Antifungal activity against Saccharomyces cerevisiae harboring pdr11 delta mutant assessed as fungal growth at 1600 uM measured after 24 hrs by absorbance based analysis relative to control; format: functional
# Saccharomyces cerevisiae [15] = assay: Antifungal activity against Saccharomyces cerevisiae harboring nft1 delta mutant assessed as fungal growth at 1600 uM measured after 24 hrs by absorbance based analysis relative to control; format: functional
# Candida albicans [16] = assay: Antifungal activity against fluconazole-resistant Candida albicans CNL011 assessed as fungal growth at 100 uM measured after 24 hrs by absorbance based analysis relative to vehicle-treated control; format: functional
# Saccharomyces cerevisiae [17] = assay: Inhibition of PDR5 in Saccharomyces cerevisiae BY4742 assessed as inhibition of R6G efflux incubated for 4 hrs followed by R6G addition and measured after 1.5 hrs by fluorescence based analysis; conditions: dose 100-400 µM, time 5.5 hrs
# Cryptococcus neoformans [18] = assay: Antifungal activity against Cryptococcus neoformans H99 assessed as inhibition of fungal growth at 0.2 uM measured every 15 mins for 24 hrs by absorbance based analysis; format: functional, organism-based
# Saccharomyces cerevisiae [19] = assay: Antifungal activity against Saccharomyces cerevisiae harboring aus1 delta mutant assessed as fungal growth at 1600 uM measured after 24 hrs by absorbance based analysis relative to control; format: functional
# [Candida] auris [20] = Potentiation of fluconazole-induced antifungal activity against Candida auris NL002 assessed as fungal growth at 100 uM measured after 24 hrs in presence of fluconazole by absorbance based analysis relative to fluconazole-treated control; format: functional, Candidozyma auris
# Saccharomyces cerevisiae [21] = assay: Potentiation of fluconazole-induced antifungal activity against Saccharomyces cerevisiae BY4741 assessed as fungal growth at 100 uM measured after 24 hrs by absorbance based analysis relative to fluconazole-treated control; format: functional
# Saccharomyces cerevisiae [22] = assay: Antifungal activity against Saccharomyces cerevisiae harboring yor1 delta mutant assessed as fungal growth at 1600 uM measured after 24 hrs by absorbance based analysis relative to control; format: functional
# Candida parapsilosis [23] = assay: Potentiation of fluconazole-induced antifungal activity against Candida parapsilosis NL001 assessed as fungal growth at 100 uM measured after 24 hrs in presence of fluconazole by absorbance based analysis relative to fluconazole-treated control; format: functional
# Saccharomyces cerevisiae [24] = assay: Potentiation of fluconazole-induced antifungal activity against Saccharomyces cerevisiae BY4742 assessed as inhibition of fungal growth at 100 uM measured after 24 hrs in presence of fluconazole by absorbance based analysis relative to fluconazole-treated control; format: functional
# Saccharomyces cerevisiae [25] = assay: Antifungal activity against Saccharomyces cerevisiae harboring pdr12 delta mutant assessed as fungal growth at 1600 uM measured after 24 hrs by absorbance based analysis relative to control; format: functional
# Candida tropicalis [26] = assay: Potentiation of fluconazole-induced antifungal activity against Candida tropicalis NL001 assessed as fungal growth at 100 uM measured after 24 hrs in presence of fluconazole by absorbance based analysis relative to vehicle treated control; format: functional
# Saccharomyces cerevisiae [27] = assay: Antifungal activity against Saccharomyces cerevisiae harboring ynr070w delta mutant assessed as fungal growth at 1600 uM measured after 24 hrs by absorbance based analysis relative to control; format: functional
# Saccharomyces cerevisiae [28] = assay: Increase in intracellular fluconazole accumulation in Saccharomyces cerevisiae YNL032 harboring pdr5 deletion mutant at 400 uM measured after 4 hrs by HPLC analysis; format: functional, cell-based
# Candida albicans [29] = assay: Recovery of fluconazole susceptibility against fluconazole-resistant Candida albicans CNL011 assessed as inhibition of fungal growth at 100 uM measured every 15 mins for 24 hrs by absorbance based analysis; format: functional, organism-based
# Saccharomyces cerevisiae [30] = assay: Antifungal activity against Saccharomyces cerevisiae harboring pdr15 delta mutant assessed as fungal growth at 1600 uM measured after 24 hrs by absorbance based analysis relative to control; format: functional
# Saccharomyces cerevisiae [31] = assay: Potentiation of fluconazole-induced antifungal activity against Saccharomyces cerevisiae YNL033 overexpressing PDR5 assessed as fungal growth at 100 uM measured after 24 hrs by absorbance based analysis relative to fluconazole-treated control; format: functional
# Candida albicans [32] = assay: Antifungal activity against fluconazole-resistant Candida albicans CNL012 assessed as fungal growth at 100 uM measured after 24 hrs by absorbance based analysis relative to vehicle-treated control; format: functional
# Candida tropicalis [33] = assay: Antifungal activity against Candida tropicalis NL001 assessed as fungal growth at 100 uM measured after 24 hrs by absorbance based analysis relative to vehicle-treated control; format: functional
# Candida albicans [34] = assay: Potentiation of fluconazole-induced antifungal activity against Candida albicans CNL002 harboring cdr1 delta mutant assessed as inhibition of fungal growth at 100 uM measured after 24 hrs by absorbance based analysis; format: functional, organism-based
# Saccharomyces cerevisiae [35] = assay: Antifungal activity against Saccharomyces cerevisiae harboring ybt1 delta mutant assessed as fungal growth at 1600 uM measured after 24 hrs by absorbance based analysis relative to control; format: functional
# Saccharomyces cerevisiae [36] = assay: Antifungal activity against Saccharomyces cerevisiae harboring ycf1 delta mutant assessed as fungal growth at 1600 uM measured after 24 hrs by absorbance based analysis relative to control; format: functional
# Saccharomyces cerevisiae [37] = assay: Antifungal activity against Saccharomyces cerevisiae harboring adp1 delta mutant assessed as fungal growth at 1600 uM measured after 24 hrs by absorbance based analysis relative to control; format: functional
# Candida albicans [38] = assay: Recovery of fluconazole susceptibility against fluconazole-resistant Candida albicans CNL012 assessed as inhibition of fungal growth at 100 uM measured every 15 mins for 24 hrs by absorbance based analysis; format: functional, organism-based
# Candida tropicalis [39] = assay: Potentiation of fluconazole-induced antifungal activity against Candida tropicalis NL001 assessed as fungal growth at 100 uM measured after 24 hrs in presence of fluconazole by absorbance based analysis relative to fluconazole-treated control; format: functional
# Candida parapsilosis [40] = assay: Antifungal activity against Candida parapsilosis NL001 assessed as fungal growth at 100 uM measured after 24 hrs by absorbance based analysis relative to vehicle-treated control; format: functional
# [41] = tested on: Saccharomyces cerevisiae BY4741; assay: Inhibition of PDR5 in Saccharomyces cerevisiae BY4741 assessed as intracellular accumulation of fluconazole at 400 uM measured per gm of cells after 4 hrs by HPLC analysis (reference value: 11.3 nmol); format: cell-based
# Saccharomyces cerevisiae [42] = assay: Antifungal activity against Saccharomyces cerevisiae harboring snq2 delta mutant assessed as fungal growth at 1600 uM measured after 24 hrs by absorbance based analysis relative to control; format: functional
# Saccharomyces cerevisiae [43] = assay: Antifungal activity against Saccharomyces cerevisiae harboring pdr10 delta mutant assessed as fungal growth at 1600 uM measured after 24 hrs by absorbance based analysis relative to control; format: functional
# Saccharomyces cerevisiae [44] = assay: Antifungal activity against Saccharomyces cerevisiae YNL013 harboring pdr5 delta mutant assessed as inhibition of fungal growth at 100 uM measured after 24 hrs by absorbance based analysis; format: functional, organism-based
# Cryptococcus neoformans [45] = assay: Potentiation of fluconazole-induced antifungal activity against Cryptococcus neoformans H99 assessed as inhibition of fungal growth at 0.2 uM measured every 15 mins for 24 hrs in presence of fluconazole by absorbance based analysis; format: functional, organism-based
# Saccharomyces cerevisiae [46] = assay: Antifungal activity against Saccharomyces cerevisiae harboring vmr1 delta mutant assessed as fungal growth at 1600 uM measured after 24 hrs by absorbance based analysis relative to control; format: functional
# Saccharomyces cerevisiae [47] = assay: Antifungal activity against Saccharomyces cerevisiae BY4742 assessed as inhibition of fungal growth at 100 uM measured after 24 hrs by absorbance based analysis relative to vehicle-treated control; format: functional
# Candida parapsilosis [48] = assay: Potentiation of fluconazole-induced antifungal activity against Candida parapsilosis NL001 assessed as fungal growth at 100 uM measured after 24 hrs in presence of fluconazole by absorbance based analysis relative to vehicle-treated control; format: functional
# [Candida] auris [49] = Antifungal activity against Candida auris NL002 assessed as fungal growth at 100 uM measured after 24 hrs by absorbance based analysis relative to vehicle-treated control; format: functional, Candidozyma auris
# Saccharomyces cerevisiae [50] = assay: Antifungal activity against Saccharomyces cerevisiae harboring yol075c delta mutant assessed as fungal growth at 1600 uM measured after 24 hrs by absorbance based analysis relative to control; format: functional
smiles,measurement,setting,value
C[C@@H]1CC[C@H]2[C@@H](C)C(=O)O[C@@H]3O[C@@]4(C)CC[C@@H]1[C@]32OO4 [ARTEMISININ],Activity,Candida albicans [1],Active
same,Activity,Candida albicans [2],97.7%
same,Activity,Candida albicans [3],inactive
same,Activity,Candida albicans [4],inactive
same,inhibition at 100 µM,Candida albicans [5],4.9%
same,Activity,Candida albicans [6],22.6%
same,Activity,Candida albicans [7],Active
same,Activity,Candida albicans [8],96.1%
CO[C@H]1O[C@@H]2O[C@@]3(C)CC[C@H]4[C@H](C)CC[C@@H]([C@H]1C)[C@@]24OO3 [ARTEMETHER],Activity,Saccharomyces cerevisiae [9],29.8%
same,Activity,Saccharomyces cerevisiae [10],71.8%
same,Activity,Saccharomyces cerevisiae [11],71.9%
same,Activity,Candida albicans [1],Active
same,inhibition,Saccharomyces cerevisiae [12],Active
same,Activity,[Candida] auris [13],44.7%
same,Activity,Saccharomyces cerevisiae [14],77.8%
same,Activity,Saccharomyces cerevisiae [15],72.3%
same,Activity,Candida albicans [16],86.9%
same,inhibition,Saccharomyces cerevisiae [17],Dose-Dependent Effect
same,Activity,Cryptococcus neoformans [18],Active
same,Activity,Candida albicans [2],95.2%
same,Activity,Saccharomyces cerevisiae [19],71%
same,Activity,Candida albicans [3],inactive
same,Activity,[Candida] auris [20],48.4%
same,Activity,Saccharomyces cerevisiae [21],76.5%
same,Activity,Saccharomyces cerevisiae [22],75.4%
same,Activity,Candida albicans [4],inactive
same,inhibition at 100 µM,Candida albicans [5],10.1%
same,Activity,Candida albicans [6],52.6%
same,Activity,Candida parapsilosis [23],41.5%
same,inhibition at 100 µM,Saccharomyces cerevisiae [24],68.8%
same,Activity,Saccharomyces cerevisiae [25],71.2%
same,Activity,Candida albicans [7],Active
same,Activity,Candida tropicalis [26],83.3%
same,Activity,Saccharomyces cerevisiae [27],72.7%
same,Activity,Saccharomyces cerevisiae [28],Active
same,Activity,Candida albicans [29],Active
same,Activity,Saccharomyces cerevisiae [30],70.2%
same,Activity,Saccharomyces cerevisiae [31],70.9%
same,Activity,Candida albicans [8],96.1%
same,Activity,Candida albicans [32],91.6%
same,Activity,Candida tropicalis [33],88.1%
same,Activity,Candida albicans [34],Active
same,Activity,Saccharomyces cerevisiae [35],69.2%
same,Activity,Saccharomyces cerevisiae [36],60.3%
same,Activity,Saccharomyces cerevisiae [37],68%
same,Activity,Candida albicans [38],Active
same,Activity,Candida tropicalis [39],81.9%
same,Activity,Candida parapsilosis [40],68.6%
same,Activity,[41],13.1 nmol
same,Activity,Saccharomyces cerevisiae [42],67.5%
same,Activity,Saccharomyces cerevisiae [43],67.1%
same,Activity,Saccharomyces cerevisiae [44],Active
same,Activity,Cryptococcus neoformans [45],Active
same,Activity,Saccharomyces cerevisiae [46],65.6%
same,inhibition at 100 µM,Saccharomyces cerevisiae [47],45.8%
same,Activity,Candida parapsilosis [48],41.5%
same,Activity,[Candida] auris [49],57.6%
same,Activity,Saccharomyces cerevisiae [50],67.9%
C[C@H]1[C@H](OC(=O)CCC(=O)O)O[C@@H]2O[C@@]3(C)CC[C@H]4[C@H](C)CC[C@@H]1[C@@]24OO3 [ARTESUNATE],Activity,Candida albicans [1],Active
same,Activity,Candida albicans [2],96.9%
same,Activity,Candida albicans [3],inactive
same,Activity,Candida albicans [4],inactive
same,Activity,Candida albicans [5],inactive
same,Activity,Candida albicans [6],42.9%
same,Activity,Candida albicans [7],Active
